Results taken from patent publication US20240158348A1, “HERBICIDAL CYCLIC AMIDES N-SUBSTITUTED WITH A HALOALKYLSULFONYLANILIDE GROUP” (FMC Corporation, priority 2021, published 2024).

How the values were obtained:
Format in all cases: in vivo
[1] = system: ryegrass, Italian (Italian ryegrass, Lolium multiflorum); test: Test C preemergence, Italian ryegrass; settings: 0 is no effect, 100 is complete control
Description: (§1) Seeds of plant species selected from blackgrass (Alopecurus myosuroides), corn (Zea mays), foxtail, giant (giant foxtail, Setaria faberi), goosegrass (Eleusine indica), kochia (Bassia scoparia), oat, wild (wild oat, Avena fatua), pigweed, palmer (palmer amaranth, Amaranthus palmeri), ragweed (common ragweed, Ambrosia artemisiifolia), ryegrass, Italian (Italian ryegrass, Lolium multiflorum), soybean (Glycine max) and wheat (Triticum aestivum) were planted into a blend of loam soil and sand and treated preemergence with a directed soil spray using test chemicals formulated in a non-phytotoxic solvent mixture which included a surfactant.
(§2) At the same time, plants selected from these crop and weed species and also galium (catchweed bedstraw, Galium aparine) and horseweed (Erigeron canadensis) were planted in pots containing the same blend of loam soil and sand and treated with postemergence applications of test chemicals formulated in the same manner. Plants ranged in height from 2 to 10 cm and were in the one- to two-leaf stage for the postemergence treatment. Treated plants and untreated controls were maintained in a greenhouse for 10 or 12 days, after which time all treated plants were compared to untreated controls and visually evaluated for injury. Plant response ratings, summarized in Table A, are based on a 0 to 100 scale where 0 is no effect and 100 is complete control. A dash (-) response means no test result.

[2] = system: wheat (Triticum aestivum); test: Test C postemergence, wheat; settings: visual injury, 0 to 100 scale (0 no effect, 100 complete control)
Description: as §1, §2

[3] = system: wheat (Triticum aestivum); test: Test C preemergence, wheat; settings: 0 is no effect, 100 is complete control
Description: as §1, §2

soybean (Glycine max) [4] = test: Test C postemergence, soybean; settings: visual injury, 0 to 100 scale (0 no effect, 100 complete control)
Description: as §1, §2

[5] = system: foxtail, giant (giant foxtail, Setaria faberi); test: Test C preemergence, giant foxtail; settings: 0 is no effect, 100 is complete control
Description: as §1, §2

[6] = system: sedge, umbrella (small-flower umbrella sedge, Cyperus difformis); test: Test D flooded paddy test, umbrella sedge; set-up: key: 0 = no effect, 100 = complete control; settings: 250 g ai/ha, Flood; applied to paddy water at 2-leaf stage; visual rating after 13 days; scale 0 (no effect) to 100 (complete control)
Method: (§3) Plant species in the flooded paddy test selected from barnyardgrass (Echinochloa crusgalli), ducksalad (Heteranthera limosa), rice (Oryza sativa), and sedge, umbrella (small-flower umbrella sedge, Cyperus difformis) were grown to the 2-leaf stage for testing. At time of treatment, test pots were flooded to 3 cm above the soil surface, treated by application of test compounds directly to the paddy water, and then maintained at that water depth for the duration of the test. Treated plants and controls were maintained in a greenhouse for 13 days, after which time all species were compared to controls and visually evaluated. Plant response ratings, summarized in Table B, are based on a scale of 0 to 100 where 0 is no effect and 100 is complete control. A dash (-) response means no test result.

[7] = system: ryegrass, Italian (Italian ryegrass, Lolium multiflorum); test: Test C postemergence, Italian ryegrass; settings: visual injury, 0 to 100 scale (0 no effect, 100 complete control)
Description: as §1, §2

[8] = system: foxtail, giant (giant foxtail, Setaria faberi); test: Test C postemergence, giant foxtail; settings: visual injury, 0 to 100 scale (0 no effect, 100 complete control)
Description: as §1, §2

corn (Zea mays) [9] = test: Test C postemergence, corn; settings: visual injury, 0 to 100 scale (0 no effect, 100 complete control)
Description: as §1, §2

[10] = system: ducksalad (Heteranthera limosa); test: Test D flooded paddy test, ducksalad; set-up: key: 0 = no effect, 100 = complete control; settings: 250 g ai/ha, Flood; applied to paddy water at 2-leaf stage; visual rating after 13 days; scale 0 (no effect) to 100 (complete control)
Method: as §3

kochia (Bassia scoparia) [11] = test: Test C postemergence, kochia; settings: visual injury, 0 to 100 scale (0 no effect, 100 complete control)
Description: as §1, §2

[12] = system: pigweed, palmer (palmer amaranth, Amaranthus palmeri); test: Test C preemergence, palmer amaranth; settings: 0 is no effect, 100 is complete control
Description: as §1, §2

[13] = system: barnyardgrass (Echinochloa crusgalli); test: Test D flooded paddy test, barnyardgrass; set-up: key: 0 = no effect, 100 = complete control; settings: 250 g ai/ha, Flood; applied to paddy water at 2-leaf stage; visual rating after 13 days; scale 0 (no effect) to 100 (complete control)
Method: as §3

corn (Zea mays) [14] = test: Test C preemergence, corn; settings: 0 is no effect, 100 is complete control
Description: as §1, §2

[15] = system: oat, wild (wild oat, Avena fatua); test: Test C preemergence, wild oat; settings: 0 is no effect, 100 is complete control
Description: as §1, §2

[16] = system: goosegrass (Eleusine indica); test: Test C preemergence, goosegrass; settings: 0 is no effect, 100 is complete control
Description: as §1, §2

[17] = system: ragweed (common ragweed, Ambrosia artemisiifolia); test: Test C preemergence, ragweed; settings: 0 is no effect, 100 is complete control
Description: as §1, §2

[18] = system: pigweed, palmer (palmer amaranth, Amaranthus palmeri); test: Test C postemergence, palmer amaranth; settings: visual injury, 0 to 100 scale (0 no effect, 100 complete control)
Description: as §1, §2

[19] = system: galium (catchweed bedstraw, Galium aparine); test: Test C postemergence, galium; settings: visual injury, 0 to 100 scale (0 no effect, 100 complete control)
Description: as §1, §2

rice (Oryza sativa) = test: Test D flooded paddy test, rice; set-up: key: 0 = no effect, 100 = complete control; settings: 250 g ai/ha, Flood; applied to paddy water at 2-leaf stage; visual rating after 13 days; scale 0 (no effect) to 100 (complete control)
Method: as §3

soybean (Glycine max) [20] = test: Test C preemergence, soybean; settings: 0 is no effect, 100 is complete control
Description: as §1, §2

[21] = system: blackgrass (Alopecurus myosuroides); test: Test C postemergence, blackgrass; settings: visual injury, 0 to 100 scale (0 no effect, 100 complete control)
Description: as §1, §2

[22] = system: oat, wild (wild oat, Avena fatua); test: Test C postemergence, wild oat; settings: visual injury, 0 to 100 scale (0 no effect, 100 complete control)
Description: as §1, §2

[23] = system: ragweed (common ragweed, Ambrosia artemisiifolia); test: Test C postemergence, ragweed; settings: visual injury, 0 to 100 scale (0 no effect, 100 complete control)
Description: as §1, §2

kochia (Bassia scoparia) [24] = test: Test C preemergence, kochia; settings: 0 is no effect, 100 is complete control
Description: as §1, §2

[25] = system: goosegrass (Eleusine indica); test: Test C postemergence, goosegrass; settings: visual injury, 0 to 100 scale (0 no effect, 100 complete control)
Description: as §1, §2

SMILES: Cc1c(N2CCC(OC3CC3)C2=O)cc(N(C(=O)OCC(C)C)S(=O)(=O)C(F)(F)F)c(C)c1C (stereo not drawn) [Compound 50]
- Plant response rating (0 to 100 scale), Ryegrass, Italian ([1]; 31 g ai/ha Preemergence): 50
- Plant response rating (0 to 100 scale), Ryegrass, Italian ([1]; 125 g ai/ha Preemergence): 100
- Wheat plant response rating ([2]; 31 g ai/ha Postemergence): 60
- Wheat plant response rating ([2]; 125 g ai/ha Postemergence): 80
- Plant response rating (0 to 100 scale), Wheat ([3]; 31 g ai/ha Preemergence): 30
- Plant response rating (0 to 100 scale), Wheat ([3]; 125 g ai/ha Preemergence): 100
- Soybean plant response rating (soybean (Glycine max) [4]; 31 g ai/ha Postemergence): 60
- Soybean plant response rating (soybean (Glycine max) [4]; 125 g ai/ha Postemergence): 80
- Plant response rating (0 to 100 scale), Foxtail, Giant ([5]; 31 g ai/ha Preemergence): 50
- Plant response rating (0 to 100 scale), Foxtail, Giant ([5]; 125 g ai/ha Preemergence): 100
- Plant response rating, Sedge, Umbrella [6]: 95
- Ryegrass, Italian plant response rating ([7]; 31 g ai/ha Postemergence): 50
- Ryegrass, Italian plant response rating ([7]; 125 g ai/ha Postemergence): 90
- Foxtail, Giant plant response rating ([8]; 31 g ai/ha Postemergence): 50
- Foxtail, Giant plant response rating ([8]; 125 g ai/ha Postemergence): 80
- Corn plant response rating (corn (Zea mays) [9]; 31 g ai/ha Postemergence): 30
- Corn plant response rating (corn (Zea mays) [9]; 125 g ai/ha Postemergence): 90
- Plant response rating, Ducksalad [10]: 90
- Kochia plant response rating (kochia (Bassia scoparia) [11]; 31 g ai/ha Postemergence): 20
- Kochia plant response rating (kochia (Bassia scoparia) [11]; 125 g ai/ha Postemergence): 70
- Plant response rating (0 to 100 scale), Pigweed, Palmer ([12]; 31 g ai/ha Preemergence): 90
- Plant response rating (0 to 100 scale), Pigweed, Palmer ([12]; 125 g ai/ha Preemergence): 100
- Plant response rating, Barnyardgrass [13]: 90
- Plant response rating (0 to 100 scale), Corn (corn (Zea mays) [14]; 31 g ai/ha Preemergence): 10
- Plant response rating (0 to 100 scale), Corn (corn (Zea mays) [14]; 125 g ai/ha Preemergence): 90
- Plant response rating (0 to 100 scale), Oat, Wild ([15]; 31 g ai/ha Preemergence): 70
- Plant response rating (0 to 100 scale), Oat, Wild ([15]; 125 g ai/ha Preemergence): 80
- Plant response rating (0 to 100 scale), Goosegrass ([16]; 31 g ai/ha Preemergence): 90
- Plant response rating (0 to 100 scale), Goosegrass ([16]; 125 g ai/ha Preemergence): 100
- Plant response rating (0 to 100 scale), Ragweed ([17]; 31 g ai/ha Preemergence): 30
- Plant response rating (0 to 100 scale), Ragweed ([17]; 125 g ai/ha Preemergence): 90
- Pigweed, Palmer plant response rating ([18]; 31 g ai/ha Postemergence): 20
- Pigweed, Palmer plant response rating ([18]; 125 g ai/ha Postemergence): 60
- Galium plant response rating ([19]; 31 g ai/ha Postemergence): 60
- Galium plant response rating ([19]; 125 g ai/ha Postemergence): 100
- Plant response rating, Rice (rice (Oryza sativa)): 20
- Plant response rating (0 to 100 scale), Soybean (soybean (Glycine max) [20]; 31 g ai/ha Preemergence): 30
- Plant response rating (0 to 100 scale), Soybean (soybean (Glycine max) [20]; 125 g ai/ha Preemergence): 60
- Blackgrass plant response rating ([21]; 31 g ai/ha Postemergence): 10
- Blackgrass plant response rating ([21]; 125 g ai/ha Postemergence): 40
- Oat, Wild plant response rating ([22]; 31 g ai/ha Postemergence): 20
- Oat, Wild plant response rating ([22]; 125 g ai/ha Postemergence): 50
- Ragweed plant response rating ([23]; 31 g ai/ha Postemergence): 70
- Ragweed plant response rating ([23]; 125 g ai/ha Postemergence): 80
- Plant response rating (0 to 100 scale), Kochia (kochia (Bassia scoparia) [24]; 31 g ai/ha Preemergence): 20
- Plant response rating (0 to 100 scale), Kochia (kochia (Bassia scoparia) [24]; 125 g ai/ha Preemergence): 100
- Goosegrass plant response rating ([25]; 31 g ai/ha Postemergence): 20
- Goosegrass plant response rating ([25]; 125 g ai/ha Postemergence): 80
